US9458165B2, “DOT1L inhibitors” (Dana-Farber Cancer Institute, Inc., priority 2014, dated 2016)
Like-named read-outs stand apart in the source and are kept apart here.

Legend:
[1] = tested on: the related gene; experiment: Gene expression assay; type: cell-based; settings: compared to CC001 and EPZ4777, FIG. 6
[2] = biological target: His6-DOT1L (Homo sapiens, UniProt Q8TEK3); experiment: ALPHA assay (AlphaScreen) of probe displacement from DOT1L; type: binding; settings: FIG. 9
Source text: In and ALPHA assay binding of binding partners captured on the beads leads to an energy transfer from one bead to the other, ultimately producing a luminescent signal. Alpha assays require two bead types: donor beads and acceptor beads. Donor beads contain a photosensitizer, phthalocyanine, which converts ambient oxygen to an excited and reactive form of O2, singlet oxygen, upon illumination at 680 nm. Within its 4 μsec half-life, singlet oxygen can diffuse approximately 200 nm in solution. If an Acceptor bead is within that distance, energy is transferred from the singlet oxygen to thioxene derivatives within the Acceptor bead, resulting in light production. If the Donor bead is not in proximity of an Acceptor bead, the singlet oxygen falls to ground state and no signal is produced. […]
Two stock solutions are made at 2× the final concentration in Alpha buffer. […] Finally, 10 μL of solution B is added to the 384 well alpha plate, the plate is spun down and incubated at room temperature and read on a plate reader.
Plates can be read with an Envision plate reader, which comes with a predefined AlphaScreen program that has the correct excitation and emission wavelengths, cutoff filters, delay time, etc. […]
Plates are incubated at room temperature for 20 minutes, then read on plate reader.

[3] = Pharmacokinetic study, IP 100 mg/kg, whole blood concentration; type: in vivo, male CD1 mice; settings: for AUC(0-inf) / AUC(0-t) / Cmax / half-life / Tmax / concentration at 0.083 hr / concentration at 0.25 hr / concentration at 0.5 hr / concentration at 1 h / concentration at 2 h / concentration at 4 h / concentration at 8 h / concentration at 24 h: male, CD1, mouse, ip, 100 mg/kg
Experimental: Pharmacokinetic studies in CD1 mice using the compound of Example 1 (i.e. CC-006) (100 mg/kg, IP dose) were also performed.

[4] = tested on: MV4:11 cell line; experiment: Anti-proliferation study; type: cell-based; settings: compared to CC001, FIG. 7
[5] = Pharmacokinetic study, intravenous 5 mg/kg; type: in vivo; settings: CD1 mice
Experimental: Pharmacokinetic studies of the compound of Example 1 (i.e. CC-006) and previously disclosed compounds EPZ004777, CC001 (see U.S. 2014/0051654) and FED1 were performed in CD1 mice following intravenous administration, as detailed in Table 1.
Mean plasma concentration-time profiles representative of the compound of Example 1 (i.e. CC-006) after intravenous dosing (5 mg kg^−1) are shown in FIG. 8A (data represent the mean and s.d. (n=3)). […] From the pharmacokinetic properties, the compound of Example 1 (i.e. CC-006) has potential for use in treatment using intravenous administration due to its long half-life, as compared to subcutaneous administration.

[6] = tested on: HL60; experiment: Cellular activity in HL60 cell line (FIG. 10B); type: cell-based; settings: compared to EPZ4777, FIG. 10B
[7] = read-out: Concentration Mouse#1
[8] = read-out: Concentration Mouse#2
[9] = read-out: Concentration Mouse#3

His6-DOT1L, sequence (Q8TEK3 whole entry): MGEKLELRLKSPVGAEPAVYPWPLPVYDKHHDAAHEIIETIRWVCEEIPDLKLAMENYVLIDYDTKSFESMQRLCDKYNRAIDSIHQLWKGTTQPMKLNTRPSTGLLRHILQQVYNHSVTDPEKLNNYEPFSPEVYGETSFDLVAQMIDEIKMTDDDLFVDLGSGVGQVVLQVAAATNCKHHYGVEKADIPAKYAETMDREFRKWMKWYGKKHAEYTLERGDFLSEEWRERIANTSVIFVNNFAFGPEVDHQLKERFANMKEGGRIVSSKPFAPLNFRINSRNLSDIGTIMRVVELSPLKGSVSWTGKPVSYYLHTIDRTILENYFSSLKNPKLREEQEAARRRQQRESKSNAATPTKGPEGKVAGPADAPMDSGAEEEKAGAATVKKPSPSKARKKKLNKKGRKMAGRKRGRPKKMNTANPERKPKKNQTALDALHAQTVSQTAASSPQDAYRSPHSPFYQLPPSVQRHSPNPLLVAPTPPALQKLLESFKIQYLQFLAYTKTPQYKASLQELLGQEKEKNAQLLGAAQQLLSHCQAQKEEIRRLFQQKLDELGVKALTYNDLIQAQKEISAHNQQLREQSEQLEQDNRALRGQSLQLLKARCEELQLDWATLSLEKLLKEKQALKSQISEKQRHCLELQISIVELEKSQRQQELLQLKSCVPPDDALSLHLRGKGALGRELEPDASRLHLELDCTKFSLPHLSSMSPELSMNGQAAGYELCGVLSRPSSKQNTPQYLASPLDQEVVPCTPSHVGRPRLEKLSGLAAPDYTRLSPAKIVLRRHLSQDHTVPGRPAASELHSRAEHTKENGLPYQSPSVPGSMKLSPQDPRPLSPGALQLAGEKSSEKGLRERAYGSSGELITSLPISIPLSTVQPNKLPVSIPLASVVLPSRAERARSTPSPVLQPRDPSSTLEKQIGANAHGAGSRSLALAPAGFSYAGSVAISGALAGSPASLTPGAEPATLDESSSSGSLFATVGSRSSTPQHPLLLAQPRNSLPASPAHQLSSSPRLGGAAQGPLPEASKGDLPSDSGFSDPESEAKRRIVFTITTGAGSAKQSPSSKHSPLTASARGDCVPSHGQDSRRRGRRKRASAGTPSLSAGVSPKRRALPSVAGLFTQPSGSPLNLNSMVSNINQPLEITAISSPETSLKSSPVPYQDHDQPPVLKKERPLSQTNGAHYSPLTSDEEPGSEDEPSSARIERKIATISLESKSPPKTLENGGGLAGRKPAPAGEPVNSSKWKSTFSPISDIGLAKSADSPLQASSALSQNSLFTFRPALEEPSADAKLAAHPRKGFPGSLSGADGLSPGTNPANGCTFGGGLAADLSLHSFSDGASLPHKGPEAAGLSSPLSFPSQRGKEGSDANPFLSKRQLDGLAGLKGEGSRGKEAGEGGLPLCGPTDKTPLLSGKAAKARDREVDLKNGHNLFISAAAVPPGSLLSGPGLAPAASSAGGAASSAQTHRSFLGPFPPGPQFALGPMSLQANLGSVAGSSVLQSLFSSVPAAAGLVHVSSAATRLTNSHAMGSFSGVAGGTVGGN

In the case of `CC(C)N(C[C@H]1C[C@@H](n2cc(C#N)c3c(N)ncnc32)[C@H](O)[C@@H]1O)C1CC(CCc2nc3ccc(C(C)(C)C)cc3[nH]2)C1` (stereo partly drawn) [Example 1, 4-amino-7-((1R,2S,3R,4R)-4-(((3-(2-(6-(tert-butyl)-1H-benzo[d]imidazol-2-yl)ethyl)cyclobutyl)(isopropyl)amino)methyl)-2,3-dihydroxycyclopentyl)-7H-pyrrolo[2,3-d]pyrimidine-5-carbonitrile], the “down regulation of the related gene” value [1] is reported as “down regulates the related gene more efficiently than known DOT1L inhibitor CC001 and very similar to EPZ4777”, the “binding to DOT1L (ALPHA screen)” value [2] is reported as “binds to DOT1L” and the AUC(0-inf) ([3]; read-out: AUCINF Mean) is reported as 86900 ng·h/mL. For the same molecule, the AUC(0-inf) ([3]; read-out: AUCINF Mouse#1) was 58900 ng·h/mL, the AUC(0-inf) ([3]; read-out: AUCINF Mouse#2) was 72900 ng·h/mL and the AUC(0-inf) ([3]; read-out: AUCINF Mouse#3) was 129000 ng·h/mL. The AUC(0-t) ([3]; read-out: AUClast Mean) was 84400 ng·h/mL, the AUC(0-t) ([3]; read-out: AUClast Mouse#1) was 57100 ng·h/mL and the AUC(0-t) ([3]; read-out: AUClast Mouse#2) was 70500 ng·h/mL. The AUC(0-t) ([3]; read-out: AUClast Mouse#3) was 126000 ng·h/mL, the Cmax ([3]; read-out: Cmax Mean) was 15300 ng/mL and the Cmax ([3]; read-out: Cmax Mouse#1) was 13100 ng/mL. The Cmax ([3]; read-out: Cmax Mouse#2) was 15000 ng/mL, the Cmax ([3]; read-out: Cmax Mouse#3) was 17800 ng/mL and the half-life ([3]; read-out: Terminal t1/2 Mean (converted)) was 279 min. For the same molecule, the half-life ([3]; read-out: Terminal t1/2 Mouse#1 (converted)) was 278 min, the half-life ([3]; read-out: Terminal t1/2 Mouse#2 (converted)) was 288 min and the half-life ([3]; read-out: Terminal t1/2 Mouse#3 (converted)) was 271 min. The Tmax ([3]; read-out: Tmax Mean) was 50 min, the Tmax ([3]; read-out: Tmax Mouse#1) was 60 min and the Tmax ([3]; read-out: Tmax Mouse#2) was 60 min. The Tmax ([3]; read-out: Tmax Mouse#3) was 30 min, the concentration at 0.083 hr ([3]; read-out: Concentration Mean) was 5350 ng/mL and the concentration at 0.083 hr [3, 7] was 4600 ng/mL. It also gave a concentration at 0.083 hr [3, 8] of 5940 ng/mL, a concentration at 0.083 hr [3, 9] of 5500 ng/mL and a concentration at 0.25 hr ([3]; read-out: Concentration Mean) of 12700 ng/mL. The concentration at 0.25 hr [3, 7] was 12000 ng/mL, the concentration at 0.25 hr [3, 8] was 13400 ng/mL and the concentration at 0.25 hr [3, 9] was 12800 ng/mL. The concentration at 0.5 hr ([3]; read-out: Concentration Mean) was 14300 ng/mL, the concentration at 0.5 hr [3, 7] was 11100 ng/mL and the concentration at 0.5 hr [3, 8] was 14100 ng/mL. For the same molecule, the concentration at 0.5 hr [3, 9] was 17800 ng/mL, the concentration at 1 h ([3]; read-out: Concentration Mean) was 15200 ng/mL and the concentration at 1 h [3, 7] was 13100 ng/mL. The concentration at 1 h [3, 8] was 15000 ng/mL, the concentration at 1 h [3, 9] was 17500 ng/mL and the concentration at 2 h ([3]; read-out: Concentration Mean) was 12600 ng/mL. The concentration at 2 h [3, 7] was 10500 ng/mL, the concentration at 2 h [3, 8] was 11300 ng/mL and the concentration at 2 h [3, 9] was 16100 ng/mL. It also gave a concentration at 4 h ([3]; read-out: Concentration Mean) of 7450 ng/mL, a concentration at 4 h [3, 7] of 4210 ng/mL and a concentration at 4 h [3, 8] of 5380 ng/mL. The concentration at 4 h [3, 9] was 12800 ng/mL, the concentration at 8 h ([3]; read-out: Concentration Mean) was 2000 ng/mL and the concentration at 8 h [3, 7] was 957 ng/mL. For the same molecule, the concentration at 8 h [3, 8] was 1460 ng/mL, the concentration at 8 h [3, 9] was 3570 ng/mL and the concentration at 24 h ([3]; read-out: Concentration Mean) was 382 ng/mL. It also gave a concentration at 24 h [3, 7] of 266 ng/mL, a concentration at 24 h [3, 8] of 350 ng/mL and a concentration at 24 h [3, 9] of 531 ng/mL. For the same molecule, the “Concentration Mean” value ([3]; sampling time 0 hr) was “BQL”, the “Concentration Mouse#1” value ([3]; sampling time 0 hr) was “BQL” and the “Concentration Mouse#2” value ([3]; sampling time 0 hr) was “BQL”. The “Concentration Mouse#3” value ([3]; sampling time 0 hr) was “BQL”, the anti-proliferation activity [4] was “greater than known DOT1L inhibitor CC001” and the “half-life relative to the half-life of EPZ004777” value [5] was “approximately 4.3 ×”. The “half-life relative to the half-life of FED1” value [5] was roughly 10.5 ×, the “drug exposure (area under the curve (AUC))” value ([5]; 5 mg/kg, FIG. 8B) was “good drug exposure” and the half-life ([5]; mouse, plasma, 5 mg/kg, FIG. 8B, read-out: half-life (T1/2) (converted)) was 756 min. For the same molecule, the “cellular activity on HL60” value [6] was “but not on HL60”.
